Reference: patent publication US12377083B2 (WUHAN LL SCIENCE AND TECHNOLOGY DEVELOPMENT CO., LTD., priority 2019, dated 2025)

Key:
Type in all cases: cell-based
[1] = target: hLPAR1 (human lysophosphatidic acid receptor 1) (Homo sapiens, UniProt Q92633); test: FLIPR assay of intracellular calcium increase induced by activation of hLPAR1 expressed in CHO-K1 cells; conditions: CHO-K1 cells expressing hLPAR1, agonist oleoyl-L-α-lysophosphatidic acid 1 μM; read-out: LPAR1 IC50
Method: The antagonist property of the compounds disclosed herein was determined using the FLIPR (fluorescence imaging plate reader) method, wherein the compounds are inhibitors for the intracellular calcium increase induced by activation of hLPAR1 (human lysophosphatidic acid receptor 1, accession No. NM_001401.4) expressed in CHO-K1 cells (Chinese hamster ovary cells K1, ATCC).
Cells at 250,000 cells/mL were seeded into a 96-well plate (25,000 cells/well) 18-24 h prior to the FLIPR experiment and then incubated overnight in a cell incubator. […] Each well was added with 75 μL of […] Fluo-4 AM fluorescent dye (Thermo, F14202) and then the cells were subjected to dye-loading incubation at 37° C. for 1.0 h. The 96-well plate was then washed once with buffer, added with a buffer containing a test compound or a vehicle at 50 μL per well and then incubated for 30 min at room temperature. […] An agonist (oleoyl-L-α-lysophosphatidic acid sodium salt (Sigma, L7260)) at a final concentration of 1 μM or a vehicle (ultrapure water) was then added at 50 μL/well, fluorescence values were measured for 2 min at 1-second intervals, and finally the output fluorescence counts were analyzed.

[2] = test system: A2058 (human melanoma cells); test: A2058 cell scratch (migration) assay with LPA; conditions: 10 μM LPA, scratch area at 24 h
Method: The activity of the compounds disclosed herein at the cell level in vitro is evaluated by A2058 (human melanoma cells, Beina Bio, BNCC341099) cell scratch assay. The inhibitory activity of the compounds against LPAR1 can be reflected by inhibition of cell scratch healing.
After the cell confluence reached 80%, the cell culture plate was taken out and the original medium was discarded. Serum-free medium was then added, and the cells were starved overnight in an incubator (37° C., 5% CO2). The cell culture plate was then taken out, and cell scratches were made along the diameter of the wells using a 200 μL pipette tip. The cell culture plate was then added with 500 μL of serum-free medium and then shaken gently to wash away the residual cells on the scratched surface, and this was repeated twice. The medium was discarded and 500 μL of 1% FBS medium containing the compound was then added, and the mixture was incubated at 37° C. for 30 min. […] Olympus CKX53 was used to observe the scratches, and MShot image analysis system was used to take pictures and measure the scratch area at 0 h. The plate was incubated in the incubator under the conditions of 37° C. and 5% CO2. 24 h later, the scratches were observed again with Olympus CKX53, and MShot image analysis system was used to take pictures and measure the scratch area at 24 h. Cell migration inhibition rate was calculated according to the following formula: […]

[3] = In vitro cytotoxicity assay in HepG2 cells, CCK-8 method; conditions: human
Method: In vitro cytotoxicity assay for the compounds disclosed herein was performed in HepG2 cells using the CCK-8 method. HepG2 cells (Beina Bio) in the logarithmic growth phase were collected, the concentration of cell suspension was adjusted, and then the cells were plated on a 96-well cell culture plate at 50,000 cells/well. The cells were then incubated overnight in a cell incubator (5% CO2, 37° C.), and after 80-90% cell confluence was achieved, test compounds or vehicle (DMSO) at various concentration gradients were added after medium change. The resulting mixture was incubated in the cell incubator (5% CO2, 37° C.) for 48 h. After the treatment, the medium in the plate was discarded. The plate was washed twice with PBS, added with CCK-8 working solution (Beyotime) at 100 μL per well, and then incubated at 37° C. for 1.5 h away from the light. Absorbance at OD450 nm was measured for each well on a microplate reader, and CC50 value of each compound was analyzed and calculated.

Sequence of hLPAR1 (human lysophosphatidic acid receptor 1) (Q92633 whole entry): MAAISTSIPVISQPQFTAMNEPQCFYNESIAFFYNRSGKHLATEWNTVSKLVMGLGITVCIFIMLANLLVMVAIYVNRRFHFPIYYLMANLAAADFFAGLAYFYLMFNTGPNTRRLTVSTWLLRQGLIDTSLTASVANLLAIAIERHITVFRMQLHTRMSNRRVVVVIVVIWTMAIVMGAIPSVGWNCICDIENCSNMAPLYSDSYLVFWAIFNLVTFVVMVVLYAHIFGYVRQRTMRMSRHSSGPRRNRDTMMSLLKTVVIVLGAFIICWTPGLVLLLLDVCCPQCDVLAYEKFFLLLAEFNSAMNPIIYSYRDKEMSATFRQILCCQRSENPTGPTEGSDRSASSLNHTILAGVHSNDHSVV

| Compound | IC50 [1] | Cell migration inhibition rate (%) [2] | CC50 at 48 h [3] |
| --- | --- | --- | --- |
| CN(Cc1ccccc1)C(=O)OCc1ocnc1-c1ccc(O[C@H]2CCC[C@H](C(=O)O)C2)cc1 (racemic) [Compound 1, (+/−)-(1S,3S)-3-(4-(5-(((benzyl(methyl)carbamoyl)oxy)methyl)oxazol-4-yl)phenoxy)cyclohexane-1-carboxylic Acid] | 300 to 10000 nM | C (C: 0-30%) | > 200000 nM |
| CN(Cc1ccccc1)C(=O)OCc1c(-c2ccc(O[C@H]3CCC[C@H](C(=O)O)C3)cc2)cnn1C (racemic) [Compound 2, (+/−)-(1S,3S)-3-(4-(5-(((benzyl(methyl)carbamoyl)oxy)methyl)-1-methyl-1H-pyrazol-4-yl)phenoxy)cyclohexane-1-carboxylic Acid] | 300 to 10000 nM | C (C: 0-30%) | > 200000 nM |
| CN(C(=O)OCc1nocc1-c1ccc(O[C@H]2CCC[C@H](C(=O)O)C2)cc1)C1CCCC1 (racemic) [Compound 9, (+/−)-(1S,3S)-3-(4-(3-(((cyclopentyl(methyl)carbamoyl)oxy)methyl)isoxazol-4-yl)phenoxy)cyclohexane-1-carboxylic Acid] | 300 to 10000 nM | C (C: 0-30%) | > 200000 nM |
| Cc1nc(COC(=O)N(C)C2CCCC2)c(-c2ccc(O[C@H]3CCC[C@H](C(=O)O)C3)cc2)s1 (racemic) [Compound 10, (+/−)-(1S,3S)-3-(4-(4-(((cyclopentyl(methyl)carbamoyl)oxy)methyl)-2-methylthiazol-5-yl)phenoxy)cyclohexane-1-carboxylic Acid] | 300 to 10000 nM | C (C: 0-30%) | > 200000 nM |
| Cc1noc(-c2ccc(O[C@H]3CCC[C@H](C(=O)O)C3)cn2)c1COC(=O)N(C)C1CCCC1 (racemic) [Compound 35, (+/−)-(1S,3S)-3-((6-(4-(((cyclopentyl(methyl)carbamoyl)oxy)methyl)-3-methylisoxazol-5-yl)pyridin-3-yl)oxy)cyclohexane-1-carboxylic Acid] | – | B (B: 30-50%) | > 200000 nM |
| Cc1onc(-c2cnc(O[C@H]3CCC[C@H](C(=O)O)C3)cn2)c1COC(=O)N(C)C1CCCC1 (racemic) [Compound 102] | < 50 nM | A (A: 50-70%) | – |
| CN(C(=O)OCc1c(-c2cnc(O[C@H]3CCC[C@H](C(=O)O)C3)c(C#N)n2)cnn1C)C1CCCC1 (racemic) [Compound 104, (+/−)-(1S,3S)-3-((3-cyano-5-(5-(((cyclopentyl(methyl)carbamoyl)oxy)methyl)-1-methyl-1H-pyrazol-4-yl)pyrazin-2-yl)oxy)cyclohexane-1-carboxylic Acid] | < 50 nM | C (C: 0-30%) | – |
| Cc1noc(-c2ccc(O[C@H]3CCC[C@H](C(=O)O)C3)cn2)c1COC(=O)N(C)C1CC1 (racemic) [Compound 106] | 300 to 10000 nM | B (B: 30-50%) | – |
| CN(C(=O)COc1c(-c2ccc(O[C@H]3CCC[C@H](C(=O)O)C3)c(N3CCOCC3)n2)cnn1C)C1CCC1 (racemic) [Compound 115] | 300 to 10000 nM | C (C: 0-30%) | – |

Second part, led by results:

| IC50 [1] | Compound | Cell migration inhibition rate (%) [2] | CC50 at 48 h [3] |
| --- | --- | --- | --- |
| 300 to 10000 nM | Cc1nc(-c2cnn(C)c2COC(=O)N(C)CC2CCOC2)ccc1O[C@H]1CCC[C@H](C(=O)O)C1 (mixture of isomers) [Compound 98, (+/−)-(1S,3S)-3-((2-methyl-6-(1-methyl-5-(((methyl((tetrahydrofuran-3-yl)methyl)carbamoyl)oxy)methyl)-1H-pyrazol-4-yl)pyridin-3-yl)oxy)cyclohexane-1-carboxylic Acid] | C (C: 0-30%) | – |
| 300 to 10000 nM | CN(C(=O)OCc1c(-c2ccc(O[C@H]3CCC[C@H](C(=O)O)C3)c(F)n2)cnn1C)C1CC1 (racemic) [Compound 108, (+/−) (1S,3S)-3-((6-(5-(((cyclopropyl(methyl)carbamoyl)oxy)methyl)-1-methyl-1H-pyrazol-4-yl)-2-fluoropyridin-3-yl)oxy)cyclohexane-1-carboxylic Acid] | B (B: 30-50%) | – |
| 50 to 300 nM | CN(C(=O)OCc1c(-c2ccc(O[C@H]3CCC[C@H](C(=O)O)C3)c(F)n2)cnn1C)C1CCC1 (racemic) [Compound 109, (+/−)-(1S,3S)-3-((6-(5-(((cyclobutyl(methyl)carbamoyl)oxy)methyl)-1-methyl-1H-pyrazol-4-yl)-2-fluoropyridin-3-yl)oxy)cyclohexane-1-carboxylic Acid] | A (A: 50-70%) | – |
| 50 to 300 nM | CN(CC1CC1)C(=O)OCc1c(-c2ccc(O[C@H]3CCC[C@H](C(=O)O)C3)c(F)n2)cnn1C (racemic) [Compound 110, (+/−)-(1S,3S)-3-((6-(5-((((cyclopropylmethyl)(methyl)carbamoyl)oxy)methyl)-1-methyl-1H-pyrazol-4-yl)-2-fluoropyridin-3-yl)oxy)cyclohexane-1-carboxylic Acid] | B (B: 30-50%) | – |
| 50 to 300 nM | CN(C(=O)OCc1c(-c2ccc(O[C@H]3CCC[C@H](C(=O)O)C3)c(C#N)n2)cnn1C)C1CCC1 (racemic) [Compound 112, (+/−)-(1S,3S)-3-((2-cyano-6-(5-(((cyclobutyl(methyl)carbamoyl)oxy)methyl)-1-methyl-1H-pyrazol-4-yl)pyridin-3-yl)oxy)cyclohexane-1-carboxylic Acid] | B (B: 30-50%) | – |
| 300 to 10000 nM | CN(C(=O)OCc1c(-c2ccc(O[C@H]3CCC[C@H](C(=O)O)C3)c(N)n2)cnn1C)C1CCC1 (racemic) [Compound 113, (+/−)-(1S,3S)-3-((2-amino-6-(5-(((cyclobutyl(methyl)carbamoyl)oxy)methyl)-1-methyl-1H-pyrazol-4-yl)pyridin-3-yl)oxy)cyclohexane-1-carboxylic Acid] | C (C: 0-30%) | – |
| 300 to 10000 nM | CN(C(=O)OCc1c(-c2ccc(O[C@H]3CCC[C@H](C(=O)O)C3)c(O)n2)cnn1C)C1CCCC1 (racemic) [Compound 114, (+/−)-(1S,3S)-3-((6-(5-(((cyclopentyl(methyl)carbamoyl)oxy)methyl)-1-methyl-1H-pyrazol-4-yl)-2-hydroxypyridin-3-yl)oxy)cyclohexane-1-carboxylic Acid] | C (C: 0-30%) | – |
| 300 to 10000 nM | CN(C(=O)OCc1c(-c2ccc(O[C@H]3CCC[C@H](C(=O)O)C3)c(CO)n2)cnn1C)C1CCC1 (racemic) [Compound 116, (+/−)-(1S,3S)-3-((6-(5-(((cyclobutyl(methyl)carbamoyl)oxy)methyl)-1-methyl-1H-pyrazol-4-yl)-2-(hydroxymethyl)pyridin-3-yl)oxy)cyclohexane-1-carboxylic Acid] | B (B: 30-50%) | – |
| 300 to 10000 nM | CN(C(=O)OCc1c(-c2cnc(O[C@H]3CCC[C@H](C(=O)O)C3)c(O)n2)cnn1C)C1CCCC1 (racemic) [Compound 117] | B (B: 30-50%) | – |
| 300 to 10000 nM | Cc1nc(-c2cnn(C)c2COC(=O)N(C)C2CCOCC2)ccc1O[C@H]1CCC[C@H](C(=O)O)C1 [Compound 95, (1S,3S)-3-((2-methyl-6-(1-methyl-5-(((methyl(tetrahydro-2H-pyran-4-yl)carbamoyl)oxy)methyl)-1H-pyrazol-4-yl)pyridin-3-yl)oxy)cyclohexane-1-carboxylic Acid] | C (C: 0-30%) | – |
| < 50 nM | CN(C(=O)OCc1c(-c2cnc(O[C@H]3CCC[C@H](C(=O)O)C3)c(Cl)n2)cnn1C)C1CCCC1 [Compound 105] | B (B: 30-50%) | – |
